# Reference: patent publication US20170218397A1, “C[…] GENE THERAPY VECTOR FOR […] CELL MO[…] ANTI HIV GENE THERAPY” (Texas Tech University System, priority 2014, published 2017)
# What was measured:
# [1] = herpes (CMV) treatment in HIV infected patients; cited from earlier work
# HIV = assay: Viability, HIV replication and cytopathic effect in transduced T cells infected with HIV with GCV; format: cell-based
# Text: FIG. 10 depicts photographic images of cells in accordance with experimental embodiments.
structure (smiles),measurement,setting,value
Nc1nc(O)c2ncn(COC(CO)CO)c2n1 [Ganciclovir],toxicity or side effects,[1],without significant toxicity or side effects
same,viability of transduced T cells infected with HIV,HIV,increased viability
same,HIV replication,HIV; in the presence of GCV,diminished HIV replication
